Measurements: US10351559B2, “Maleate salts of a B-RAF kinase inhibitor, crystalline forms, methods of preparation, and uses therefore” (BeiGene, Ltd., priority 2015, dated 2019)
Structures can show the parent of a compound that is named as a salt.

Key:
[1] = nonclinical toxicity and safety pharmacology program
Protocol: A comprehensive nonclinical toxicity study program, including 28-day GLP studies in rats and dogs and several investigational studies, was conducted for the evaluation of the preclinical safety of Compound 1 Sesqui-Maleate (Crystalline Form A*). These studies took account the available regulatory guidance for preclinical development of anticancer drugs.

[2] = test system: ERK1/2 phosphorylation in A375 xenografts; test: PD study, p-ERK1/2 in tumor tissue (AlphaScreen SureFire); format: in vivo; details: A375 xenografts in mice, oral administration
Protocol: (§1) Human cancer cells were inoculated subcutaneously in the right axilla region of BALB/C nude mice to generate tumor xenografts. On the day of implantation, the cell culture medium was replaced with fresh medium. Three hours later, the media was removed and the cells were collected and re-suspended in cold (4° C.) PBS prior to inoculation. The right axilla region of each mouse was cleaned with 70% ethanol prior to cell inoculation. Each animal was injected subcutaneously with desired cells in 200 μl of cell suspension in the right front flank via a 26-gauge needle. After implantation tumor volumes were measured twice weekly in two dimensions using a calliper. Tumor volume was calculated using the formula: V=0.5×(a×b^2) where a and b are the long and short diameters of the tumor, respectively.
For PD study, when the average tumor size reaches 140-900 mm^3, animals were assigned into desired number of groups with 4 mice per group using a stratified randomization procedure. The groups consisted of a control group (no drug treatment), and different dose levels of Crystalline Form A* of Compound 1 Sesqui-Maleate treatment groups (ranged from 1-20 mg/kg). All doses were based on free-base weight. Drugs were administered by oral gavage once (qd) or twice (bid) daily. […] Body weight was assessed immediately before dosing and the volume dosed was adjusted accordingly. […]

[3] = test system: human A375 melanoma (B-RAF V600E mutation) xenografts; test: xenograft efficacy study; format: in vivo, BALB/C nude mice; details: A375 xenografts in nude mice, oral
Protocol: as §1
(§2) For in vivo efficacy studies, when the average tumor size reaches 100˜200 mm^3, animals were assigned into desired number of groups with 6-10 mice per group using a stratified randomization procedure. The groups consisted of a control group (no drug treatment), and different dose levels of Crystalline Form A* of Compound 1 Sesqui-Maleate treatment groups (ranged from 1-20 mg/kg). All doses were based on free-base weight. Drugs were administered by oral gavage once (qd) or twice (bid) daily; dosing frequency depended on the individual case for tumor growth. Treatments were administered by oral gavage (p.o.) in a volume of 10 ml/kg body weight. Body weight was assessed immediately before dosing and the volume dosed was adjusted accordingly. Individual body weights and tumor volumes were determined twice weekly, with mice being monitored daily for clinical signs of toxicity for the duration of the study. Mice were euthanized using carbon dioxide once their tumor volume reached 2000 mm^3, the tumor was ulcerated, or body weight loss exceeded 20%. All group data was analyzed using the t test. If the p value was <0.05, it was considered to be statistically significant.
(§3) Tumor growth inhibition (TGI) was calculated using the following formula: […]

[4] = test system: HT29 colorectal carcinoma (B-RAF V600E mutation) xenografts; test: xenograft efficacy study; format: in vivo, BALB/C nude mice; details: HT29 xenografts in nude mice, oral
Protocol: as §1, §2, §3

[5] = test system: LOX melanoma (B-RAF V600E mutation) xenografts; test: xenograft efficacy study; format: in vivo, BALB/C nude mice; details: LOX xenografts in nude mice, oral
Protocol: as §1, §2, §3

[6] = test system: HCC827 lung carcinoma (EGFR mutation) xenografts; test: xenograft efficacy study; format: in vivo, BALB/C nude mice; details: HCC827 xenografts in nude mice, oral
Protocol: as §1, §2, §3

[7] = test system: A431 epidermoid carcinoma (EGFR overexpression) xenografts; test: xenograft efficacy study; format: in vivo, BALB/C nude mice; details: A431 xenografts in nude mice, oral
Protocol: as §1, §2, §3

[8] = test system: Colo205 colorectal carcinoma (B-RAF V600E mutation) xenografts; test: xenograft efficacy study; format: in vivo, BALB/C nude mice; details: Colo205 xenografts in nude mice, oral
Protocol: as §1, §2, §3

[9] = test system: WiDr colorectal carcinoma (B-RAF V600E mutation) xenografts; test: xenograft efficacy study; format: in vivo, BALB/C nude mice; details: WiDr xenografts in nude mice, oral
Protocol: as §1, §2, §3

[10] = pharmacokinetic study (LC-MS/MS); format: in vivo, beagle dogs; details: dogs
Excerpt: The fully-validated LC-MS/MS method was well used for the pharmacokinetic (PK) studies of Crystalline Form A* of Compound 1 Sesqui-Maleate in Sprague-Dawley rats and beagle dogs following single- and multiple-dose administrations.

For `O=C1CCc2c(Oc3ccc4c(c3)[C@@H]3[C@H](O4)[C@H]3c3nc4ccc(C(F)(F)F)cc4[nH]3)ccnc2N1` [5-(((1R,1aS,6bR)-1-(6-(trifluoromethyl)-1H-benzo[d]imidazol-2-yl)-1a,6b-dihydro-1H-cyclopropa[b]benzofuran-5-yl)oxy)-3,4-dihydro-1,8-naphthyridin-2(1H)-one sesqui-maleate salt], which “teratogenic, mutagenic and reproductive toxicity” value ([1]; additional toxicity testing) is on record?
The value was “no teratogenic, mutagenic and reproductive toxicity”.

What about the “toxicology and safety pharmacology profile” value ([1]; incl. 28-day GLP studies in rats and dogs) of the same compound?
The value was “favorable toxicology and safety pharmacology profile”.

And the “effect on autonomic nervous system activity or the central nervous system” value ([1]; safety pharmacological test)?
Its value is “no effect”.

And the “effect on respiration, blood pressure and circulatory function” value ([1]; safety pharmacological test)?
Its value is “no effect”.

What about the “inhibition of ERK1/2 phosphorylation in tumor” value [2] of the same compound?
Its value is “time-dependent and dose-dependent inhibition”.

And the antitumor activity [3]?
The antitumor activity was “marked antitumor activity”.

And the antitumor activity [4]?
The antitumor activity was “marked antitumor activity”.

What about the antitumor activity [5] of the same compound?
Its antitumor activity is “marked antitumor activity”.

What about the antitumor activity [6] of the same compound?
Its antitumor activity is “marked antitumor activity”.

What about the antitumor activity [7] of the same compound?
Its antitumor activity is “marked antitumor activity”.

And the antitumor activity [8]?
The antitumor activity was “marked antitumor activity”.

What about the antitumor activity [9] of the same compound?
Its antitumor activity is “marked antitumor activity”.

What about the bioavailability ([10]; beagle, dog, in vivo, po) of the same compound?
The bioavailability was 41 to 82%.

And the half-life ([10]; beagle, dog, in vivo, after oral administration, read-out: elimination half-life)?
The half-life was 3.3 to 4.9 h.

And the “accumulation after multiple dosing” value [10]?
The value was “No accumulation”.

And the “kinetics over dose range” value ([10]; 1.5 to 15 mg/kg)?
The value was “linear”.
